Laboratory results reported in patent EP0453119A1, “Modified beta adrenergic receptor” (MERCK & CO. INC., priority 1990, dated 1991).

Target: T1, Wild-type βAR (Mesocricetus auratus, UniProt P04274)
T1 construct: pSVHAC contains the full length hamster ß₂AR cDNA cloned into the EcoRI site of pSVL; expressed in transfected cells; host or cells: mouse L cells (clonal lines, membranes)
Assay: Adenylyl cyclase stimulation in membranes of mouse L cells expressing the wild-type receptor
Type: biochemical, hamster
Conditions: not given
Procedure: (§1) Expression in mammalian cells. For the establishment of clonal cell lines expressing mutant receptors, the plasmid DNAs were transfected into mouse L cells by the CaPO₄ procedure. […] The precipitate was added to the media covering subconfluent monolayers of mouse L cells in 100 mm petri dishes and incubated at 37°C for 4 hrs. The media was removed and the cells were washed once with Dulbecco's modified minimal essential medium (DMEM). […] DMEM containing 10% fetal bovine serum was then added to the monolayers and the cells were incubated at 37°C for 12-18 hrs. The medium was changed to DMEM containing 10% fetal bovine serum and […] genticin to select for cells containing the expression vector. […] Individual colonies were isolated and expanded into cell lines.
(§2) Membranes were prepared from L cell monolayers by hypotonic lysis in 10 mM Tris, pH 7.5 for 10 min at 4°C.
(§3) The reaction was allowed to proceed for 30 min at 30°C before it was quenched at 4°C with an excess of unlabeled ATP. The ³²P-cAMP produced was determined by Dowex and alumina chromatography, as described by Salomon et al., supra.
Data Analysis. […] The Michaelis-Menton equation was used: V=Vmax[A]/Kact+[A], where V is the level of cyclase stimulation (in pmol ³²P-cAMP/mg protein/min) measured at a given agonist concentration [A], and Vmax is the calculated maximal stimulation at infinite agonist concentration.

T1 sequence (P04274 whole entry): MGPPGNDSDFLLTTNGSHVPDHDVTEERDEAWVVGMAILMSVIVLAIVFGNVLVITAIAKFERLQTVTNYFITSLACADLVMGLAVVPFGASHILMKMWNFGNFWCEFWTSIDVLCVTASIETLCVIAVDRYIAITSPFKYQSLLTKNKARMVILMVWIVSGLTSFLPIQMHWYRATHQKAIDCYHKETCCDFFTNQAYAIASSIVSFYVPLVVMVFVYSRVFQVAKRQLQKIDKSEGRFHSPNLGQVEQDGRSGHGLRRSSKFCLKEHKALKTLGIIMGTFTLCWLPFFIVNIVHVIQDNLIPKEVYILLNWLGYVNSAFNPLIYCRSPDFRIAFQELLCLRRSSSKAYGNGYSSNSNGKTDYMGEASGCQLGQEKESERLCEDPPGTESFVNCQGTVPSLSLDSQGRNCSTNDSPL

SMILES	EC50
CNC[C@H](O)c1ccc(O)c(O)c1 [Compound 2, epinephrine]	0.3 µM

Target: T2, [Ser¹¹³]ßAR (Mesocricetus auratus, UniProt P04274, D113S)
T2 construct: pSVHAC contains the full length hamster ß₂AR cDNA cloned into the EcoRI site of pSVL; expressed in transfected cells; host or cells: COS-7 cells (membranes)
T2 sequence (P04274 whole entry D113S): as the sequence (P04274 whole entry) above, with D113S counted along it
Assay: not given
Set-up: species or system hamster
Conditions: COS-7 cell membranes; equilibrium binding
Procedure: Membrane Preparation. COS-7 cell monolayers were washed 3 times in PBS, scraped from the flask with a rubber policeman, and centrifuged at 2000 x g for 5 min. The cell pellet was resuspended in 75 mM Tris, pH 7.4, 12.5 mM MgCl₂, […] EDTA (TME buffer) at a concentration of 10⁸ cells/ml, then diluted 1:5 with water and lysed by freezing in liquid N₂ and thawing with vigorous vortexing. Nuclei were removed by centrifugation over a cushion of 60% sucrose at 2500 x g for 15 min. The upper layer was collected, membranes pelleted by centrifugation at 40,000 x g for 15 min,and resuspended in TME at a protein concentration of 1-2 mg/ml.
Receptor Assays. ¹²⁵I-CYP binding to membranes was measured in a final volume of 250 ul of TME buffer, containing […] of membrane protein and 225 pM ¹²⁵I-CYP for 90 min at 23°C, as previously described Dixon et al. (1987), supra. Membranes were collected by filtration on GF/C glass fiber filters and bound ¹²⁵I-CYP was detected with a gamma counter. Nonspecific binding, measured in the presence of […] alprenolol, was subtracted from the total binding.

SMILES	¹²⁵I-CYP binding
CC(C)(C)NCC(O)COc1cccc2[nH]c(C#N)c([125I])c12 (centres unmarked) [¹²⁵I-CYP, ¹²⁵I-cyanopindolol]	did not bind detectable levels

Target: T3, [Ser^113]βAR (Mesocricetus auratus, UniProt P04274, D113S)
T3 construct: pSVHAC contains the full length hamster ß₂AR cDNA cloned into the EcoRI site of pSVL; expressed in transfected cells; host or cells: mouse L cells (clonal lines, membranes)
T3 sequence (P04274 whole entry D113S): as the sequence (P04274 whole entry) above, with D113S counted along it
Assay: Adenylyl cyclase stimulation in membranes of mouse L cells expressing the mutant receptor
Type: biochemical, hamster
Conditions: result in words, acids compared with the corresponding esters
Procedure: Mutagenesis of the ßAR gene. […] Other standard cloning techniques were performed as described by the former Manual and would be easily reproduced by anyone trained in molecular biology. An oligonucleotide 19 nucleotides in length complementary to the phage DNA surrounding the codon for Asp¹¹³ were synthesized using an Applied Biosystems Model 3A DNA synthesizer. The oligonucleotide contained mismatched positions in order to convert the codon for Asp¹¹³ (GAT) to Ser ([…]). The oligonucleotide was annealed to the phage DNA for priming and extended using Klenow DNA polymerase and T4 DNA ligase. […] The ßAR gene in this vector utilizes the SV40 early promoter, the modified splice signal, and the ßAR polyadenylation site for expression. The ligated mixture was transformed into E. coli strain DH5 (Bethesda Research Laboratories) and ampicillin resistant colonies were screened by filter hybridization using the oligonucleotide corresponding to the mutation as the hybridization probe. Plasmids were isolated from several hybridization positive colonies and mapped to insure the proper DNA insert was contained in the clone. The mutations were resolved by retransformation of the plasmid DNA into E. coli. Mutant plasmid containing colonies were again isolated by filter hybridization as above. Plasmid DNA was isolated from overnight cultures of cells by alkaline lysis and twice banding in CsCl-ethidium bromide equilibrium density gradients. […] The purity of the plasmid preparation was tested by retransformation of the DNA into E. coli followed by colony hybridization. […] Plasmid DNA was isolated as above and confirmed by restriction mapping.
as §1, §2, §3
Data Analysis. Activation constant (Kact) values for adenylyl cyclase stimulation were obtained by computer assisted nonlinear regression analysis of curves generated in the presence of increasing concentrations of compounds. The Michaelis-Menton equation was used: V=Vmax[A]/Kact+[A], where V is the level of cyclase stimulation (in pmol ³²P-cAMP/mg protein/min) measured at a given agonist concentration [A], and Vmax is the calculated maximal stimulation at infinite agonist concentration.

SMILES	activation of [Ser¹¹³]ßAR
CCOC(=O)CCc1ccc(O)c(O)c1 [Compound 5]	activated
O=C(O)CCc1ccc(O)c(O)c1 [Compound 6]	less effective
O=C(O)/C=C/c1ccc(O)c(O)c1 [Compound 8]	less effective

Now from value to compound:

activation of [Ser¹¹³]ßAR	SMILES
activated	COC(=O)/C=C/c1ccc(O)c(O)c1 [Compound 7]
activated	CCOC(=O)C(=O)Cc1ccc(O)c(O)c1 [Compound 9]
less effective	O=C(O)C(=O)Cc1ccc(O)c(O)c1 [Compound 10]
activated	CCOC(=O)Cc1ccc(O)c(O)c1 [Compound 11]
weakly	CCOC(=O)C(O)c1ccc(O)c(O)c1 (centres unmarked) [Compound 12]
activated	CCOC(=O)CC(O)c1ccc(O)c(O)c1 (centres unmarked) [Compound 13]
